Patent publication US20230365493A1, “COMPOUNDS AND METHODS” (DEMAGTECH PTY LTD, priority 2020, published 2023)
Where a name gives a salt, the structure may show the parent alone.

Columns and labels:
A. thaliana = experiment: Herbicidal activity assay, post-emergence, pots; assay type: in vivo, Arabidopsis thaliana Col-0; details: A. thaliana Col-0, post-emergence treatments at three and six days after germination, grown 16 days after treatment; for minimal effective concentration: Arabidopsis thaliana, 384 h
Protocol: (§1) A range of compounds of the invention were assessed for herbicidal activity against A. thaliana. A. thaliana Col-0 seeds (˜30) were sown in 63×63×59 mm pots consisting of Irish peat that was pre-wet prior to sowing. Seeds were cold-treated for 3 days in the dark at 4° C. to synchronise germination and then grown in a chamber at 22° C., with 60% relative humidity and in a 16 h light/8 h dark photoperiod. Compounds of the invention were initially dissolved in dimethyl sulfoxide (DMSO) at 20 mg/mL and further diluted in water prior to treatments. The surfactant Brushwet (SST Australia) was added to a final concentration of 0.02%. The carrier DMSO was used as a negative control. Seeds or seedlings were treated with solutions of compound that contained 2% of DMSO, using a pipette. Post-emergence treatments were done at three and six days after germination. Seedlings were grown for 16 days after treatment before photos were taken.
The results of this study are represented in the following table, where compounds of the invention are represented by number, and herbicidal activity is represented using the following: ≤125 μM=+++, ≤500 μM=++, ≤2000 μM=+
as §1, with “A.” for “A range of compounds of the invention were assessed for herbicidal activity against A. thaliana. A.”, “Compounds” for “Compounds of the invention”

Arabidopsis thaliana = experiment: Activity of 2,4-DB esters compared with 2,4-DB; assay type: in vivo; details: 31.25 μM to 2000 μM; imaged day 12
Protocol: (§2) Once the Arabidopsis thaliana seeds had germinated, this was Day 0 and an image taken (Treatment—Day 0) to show plants were all at the same stage. Plants were treated either with 2,4-DB or 2-(dimethylamino)ethyl 4-(2,4-dichlorophenoxy)butanoate at concentrations ranging from 31.25 μM to 2000 μM as marked and imaged 12 days later (Treatment—Day 12).
as §2, with “4-(2,4-dichlorophenoxy)butanoate hydrochloride” for “4-(2,4-dichlorophenoxy)butanoate”

Row | Compound | minimal effective concentration (A. thaliana) [µM] | also measured
1 | COc1c(Cl)ccc(Cl)c1C(=O)OCCCN(C)C [Compound 12, 3-(dimethylamino)propyl 3,6-dichloro-2-methoxybenzoate] | ≤ 2000 | –
2 | COc1c(Cl)ccc(Cl)c1C(=O)OCCCCCCN(C)C [Compound 14, 6-(dimethylamino)hexyl 3,6-dichloro-2-methoxybenzoate] | ≤ 125 | –
3 | CCCCN(CCCC)CCOC(=O)c1c(Cl)ccc(Cl)c1OC [Compound 4, 2-(dibutylamino)ethyl 3,6-dichloro-2-methoxybenzoate] | ≤ 125 | –
4 | CN(C)CCOC(=O)c1c(Cl)ccc2cc(Cl)cnc12.Cl [3,7-dichloroquinoline-8-carboxylic acid 2-(dimethylamino)ethyl ester hydrochloride] | – | Active at (A. thaliana): 2000 µM
5 | COc1c(Cl)ccc(Cl)c1C(=O)OCCN [Compound 19, 2-aminoethyl 3,6-dichloro-2-methoxybenzoate] | ≤ 500 | –
6 | COc1c(Cl)ccc(Cl)c1C(=O)OCCN(C(C)C)C(C)C [Compound 3, 2-(dipropan-2-ylamino)ethyl 3,6-dichloro-2-methoxybenzoate] | ≤ 500 | –
7 | COc1c(Cl)ccc(Cl)c1C(=O)OCCN(C)C [Compound 1, 2-(dimethylamino)ethyl 3,6-dichloro-2-methoxybenzoate] | ≤ 500 | –
8 | CCN(CC)CCOC(=O)c1c(Cl)ccc(Cl)c1OC [Compound 2, 2-(diethylamino)ethyl 3,6-dichloro-2-methoxybenzoate] | ≤ 125 | –
9 | COc1c(Cl)ccc(Cl)c1C(=O)OC1CCN(C)CC1 [Compound 9, 1-methylpiperidin-4-yl 3,6-dichloro-2-methoxybenzoate] | ≤ 2000 | –
10 | CN(C)CCOC(=O)c1nc(Cl)ccc1Cl [3,6-dichloropyridine-2-carboxylic acid 2-(dimethylamino)ethyl ester] | – | Active at (A. thaliana): 125 µM
11 | COc1c(Cl)ccc(Cl)c1C(=O)OCCOCCN(C)C [Compound 16, 2-(2-(dimethylamino)ethoxy)ethyl 3,6-dichloro-2-methoxybenzoate] | ≤ 500 | –
12 | CCN(CC)CCSC(=O)c1c(Cl)ccc(Cl)c1OC [Compound 28, S-(2-(diethylamino)ethyl) 3,6-dichloro-2-methoxybenzene-1-carbothioate] | ≤ 125 | –
13 | COc1c(Cl)ccc(Cl)c1C(=O)OCCN(C)CCO [Compound 17, 2-((2-hydroxyethyl)(methyl)amino)ethyl 3,6-dichloro-2-methoxybenzoate] | ≤ 2000 | –
14 | COc1c(Cl)ccc(Cl)c1C(=O)OCCN(C)CCOC(=O)c1c(Cl)ccc(Cl)c1OC [Compound 18, (Methylazanediyl)bis(ethane-2,1-diyl) bis(3,6-dichloro-2-methoxybenzoate)] | ≤ 125 | –
15 | COc1c(Cl)ccc(Cl)c1C(=O)OCC(C)(C)N [Compound 21, 2-amino-2-methylpropyl 3,6-dichloro-2-methoxybenzoate] | ≤ 500 | –
16 | O=C(O)CCCOc1ccc(Cl)cc1Cl [2,4-DB, 4-(2,4-dichlorophenoxy)butanoic acid, reference compound] | – | activity against Arabidopsis thaliana on an equimolar basis, FIGS. 19 and 20 (Arabidopsis thaliana): comparable activity
17 | COc1c(Cl)ccc(Cl)c1C(=O)OCCN1CCOCC1 [Compound 7, 2-(morpholin-4-yl)ethyl 3,6-dichloro-2-methoxybenzoate] | ≤ 125 | –
18 | CC(C)C1(C)N=C(c2ncccc2C(=O)OCCN(C)C)NC1=O.Cl (stereo not shown) [2-(Dimethylamino)ethyl 2-[4,5-dihydro-4-methyl-4-(1-methylethyl)-5-oxo-1H-imidazol-2-yl]-3-pyridinecarboxylate hydrochloride] | – | Active at (A. thaliana): 500 µM
19 | COc1c(Cl)ccc(Cl)c1C(=O)OCCN1CCCC1 [Compound 5, 2-(pyrrolidin-1-yl)ethyl 3,6-dichloro-2-methoxybenzoate] | ≤ 500 | –

Row | Compound | minimal effective concentration (A. thaliana) [µM] | also measured
20 | COc1c(Cl)ccc(Cl)c1C(=O)OCCN1CCCCC1 [Compound 6, 2-(piperidin-1-yl)ethyl 3,6-dichloro-2-methoxybenzoate] | ≤ 2000 | –
21 | CN(C)CCOC(=O)CCCOc1ccc(Cl)cc1Cl [2-(dimethylamino)ethyl 4-(2,4-dichlorophenoxy)butanoate] | – | activity against Arabidopsis thaliana on an equimolar basis, FIGS. 19 and 20 (Arabidopsis thaliana): comparable activity
22 | COc1c(Cl)ccc(Cl)c1C(=O)SCCN(C)C [Compound 27, S-(2-(dimethylamino)ethyl) 3,6-dichloro-2-methoxybenzene-1-carbothioate] | ≤ 125 | –
23 | O=C(O)CC(O)(CC(=O)O)C(=O)O [1. citrate] | ≤ 125 | –
24 | COc1c(Cl)ccc(Cl)c1C(=O)OC(CN(C)C)CN(C)C [Compound 26, 1,3-bis(dimethylamino)propan-2-yl 3,6-dichloro-2-methoxybenzoate] | ≤ 125 | –
25 | CCN(CCOC(=O)c1c(Cl)ccc(Cl)c1OC)c1ccccc1 [Compound 24, 2-(ethyl(phenyl)amino)ethyl 3,6-dichloro-2-methoxybenzoate] | ≤ 500 | –
26 | COc1c(Cl)ccc(Cl)c1C(=O)OCCN(Cc1ccccc1)Cc1ccccc1 [Compound 25, 2-(dibenzylamino)ethyl 3,6-dichloro-2-methoxybenzoate] | ≤ 2000 | –
27 | COc1c(Cl)ccc(Cl)c1C(=O)OCC1CCCN1C (stereo not shown) [Compound 10, (1-methylpyrrolidin-2-yl)methyl 3,6-dichloro-2-methoxybenzoate] | ≤ 500 | –
28 | CN(C)CCOC(=O)c1c(Cl)ccc2cc(Cl)cnc12 [3,7-dichloroquinoline-8-carboxylic acid 2-(dimethylamino)ethyl ester] | – | Active at (A. thaliana): 2000 µM
29 | COc1c(Cl)ccc(Cl)c1C(=O)OCCCCCCCCN(C)C [Compound 15, 8-(dimethylamino)octyl 3,6-dichloro-2-methoxybenzoate] | ≤ 500 | –
30 | CC(=NNC(=O)Nc1cccc(F)c1)c1ncccc1C(=O)OCCN(C)C.Cl [2-(Dimethylamino)ethyl 2-[1-[2-[[(3-fluorophenyl)amino]carbonyl]hydrazinylidene]ethyl]-3-pyridinecarboxylate hydrochloride] | – | Active at (A. thaliana): 125 µM
31 | COc1c(Cl)ccc(Cl)c1C(=O)OC(C)CN (stereo not shown) [Compound 22, 1-aminopropan-2-yl 3,6-dichloro-2-methoxybenzoate] | ≤ 2000 | –
32 | CN(C)CCOC(=O)CCCOc1ccc(Cl)cc1Cl.Cl [2-(dimethylamino)ethyl 4-(2,4-dichlorophenoxy)butanoate hydrochloride] | – | activity against Arabidopsis thaliana on an equimolar basis, FIGS. 19 and 20 (Arabidopsis thaliana): comparable activity
33 | CNCCOC(=O)c1c(Cl)ccc(Cl)c1OC [Compound 20, 2-(methylamino)ethyl 3,6-dichloro-2-methoxybenzoate] | ≤ 500 | –
34 | COc1c(Cl)ccc(Cl)c1C(=O)OCCc1ccccn1 [Compound 11, 2-(pyridin-2-yl)ethyl 3,6-dichloro-2-methoxybenzoate] | ≤ 125 | –
35 | COc1c(Cl)ccc(Cl)c1C(=O)OCCN1CCN(C)CC1 [Compound 8, 2-(4-methylpiperazin-1-yl)ethyl 3,6-dichloro-2-methoxybenzoate] | ≤ 2000 | –
36 | COc1c(Cl)ccc(Cl)c1C(=O)OCCCN [Compound 23, 3-aminopropyl 3,6-dichloro-2-methoxybenzoate] | ≤ 125 | –
37 | CN(C)CCOC(=O)c1nc(Cl)ccc1Cl.Cl [3,6-dichloropyridine-2-carboxylic acid 2-(dimethylamino)ethyl ester hydrochloride] | – | Active at (A. thaliana): 125 µM
